Where a name gives a salt, the structure may show the parent alone.
Key:
ICR mice = test: Increasing study of fecal protein concentration in mice; format: in vivo; details: Mus musculus, 5 mg/kg oral, feces collected 3 to 9 hours after, control = 1, read-out: protein increasing activity in feces, fold vs control
Method: 2. Increasing Study of Fecal Protein Concentration in Mice
For the experiment, 6-weeks old ICR mice (male) were used, and the experiment was carried out in five per group. After fasting the mice for 15 hours, the control group was forcibly orally administered with a 0.5% methyl cellulose (MC) solution, and the test drug group was forcibly orally administered (5 mg/kg) with a solution or suspension obtained by dissolving or suspending the compound in the 0.5% MC solution. The fasting was stopped immediately thereafter, free feeding (CE-2) started and then the feces were collected from after 3 hours to after 9 hours. All of the obtained feces were dissolved and suspended in 6 mL of distilled water, and centrifuged for 10 minutes at 3000 rpm. The protein concentration in the supernatant was measured by a Bradford method, and the amount of the protein in 1 g of feces was calculated by dividing the protein concentration in the feces by the total weight of feces. Further, the efficacy was investigated from the ratio to the control. For the compounds that were evaluated multiple times, the average values were calculated.
For some representative compounds, the protein increasing activities in feces are shown in Table 2, assuming a value for the control as 1. Ex in the table represents the Example No. as denoted below of the test compound.

[1] = molecular target: mouse trypsin (m-trypsin); test: Inhibitory activity of trypsin enzyme (mouse trypsin purified from small intestine contents, BZiPAR fluorescent substrate); format: biochemical; details: mouse trypsin diluted 1/50, BZiPAR substrate, 30 minutes at room temperature
Source text: (§1) 1. Inhibitory Activity of Trypsin Enzyme in Humans and Mice
(§2) In the experiment, human recombinant trypsin (r-h trypsin; manufactured by WAKO, cat. #206-17171) and mouse trypsin (m-trypsin; purified from the mouse small intestine contents by the present Company) were used.
The method to extract the trypsin from the mouse small intestine is shown below.
The small intestine contents and the gastrointestinal tract of 10 mice were suspended in PBS using Polytron and subjected to centrifugation at 15,000×g several times. The supernatant was mixed at 4° C. for 16 hours with a Benzamidine Sepharose 4 Fast Flow Resin (GE Healthcare: #17-5123-10). After washing the resin with PBS, m-trypsin was eluted with a glycine elution buffer (pH 3.0).
(§3) The outline of the measurement method is shown below.
(§4) The compound was dissolved in dimethyl sulfoxide (DMSO), and diluted to an arbitrary concentration (A). A was 100-fold diluted with a buffer (0.1 M Tris (pH 8.0), 0.15 M NaCl, 10 mM CaCl2, 0.05% Brij38) (B). The r-h trypsin was diluted with a buffer to 0.088 μg/mL, and the m-trypsin was diluted with a buffer to 1/50 (C). […] The substrate solution of a substrate for the enzyme reaction, BZiPAR, (Rhodamine Reference Substrate) was diluted with a buffer to 5 μmol/L (D). B; 5 μL, C; 5 μL, and D; 10 μL were added to a 384-plate, and incubated at room temperature for 30 minutes. The fluorescent signals were detected with Ex/Em=497/520 using Tecan Safire Fluorometer. […] Based on the obtained inhibitory rates, IC50 values (nM) were calculated from the non-linear regression. The test was carried out in the same manner, using camostat as a control compound.
(§5) Ex in the table represents the Example No. as denoted below.

[2] = molecular target: human recombinant trypsin (r-h trypsin) (Homo sapiens (Human), UniProt P07477); test: Inhibitory activity of trypsin enzyme (human recombinant trypsin, BZiPAR fluorescent substrate); format: biochemical; details: human recombinant trypsin 0.088 μg/mL, 30 minutes at room temperature
Method: as §1, §2, §3, §4, §5

SMILES	melting point [°C]	response vs control in vivo at 5 mg/kg (ICR mice) [%]	IC50 [1] [nM]	IC50 [2] [nM]
N=C(N)Nc1ccc(C(=O)Oc2ccc(CCC(=O)N(CC(=O)O)Cc3cccc(C(=O)O)c3)c(Cl)c2)cc1 (as salt: mesylate) [Example 3, 3-{[(3-{4-[(4-carbamimidamidobenzoyl)oxy]-2-chlorophenyl}propanoyl)(carboxymethyl)amino]methyl}benzoic acid mesylate]	197			
N=C(N)Nc1ccc(C(=O)Oc2ccc3nc(C(=O)N(CC(=O)O)Cc4cccc(C(=O)O)c4)ccc3c2)cc1 [Example 4, 3-{[({6-[(4-carbamimidamidobenzoyl)oxy]quinolin-2-yl}carbonyl)(carboxymethyl)amino]methyl}benzoic acid]	255			
CC(C(=O)N(CC(=O)O)Cc1cccc(C(=O)O)c1)c1ccc(OC(=O)c2ccc(NC(=N)N)cc2)cc1Cl (stereo not drawn) [Example 5, 3-{[(2-{4-[(4-carbamimidamidobenzoyl)oxy]-2-chlorophenyl}propanoyl)(carboxymethyl)amino]methyl}benzoic acid]	208			
N=C(N)Nc1ccc(C(=O)Oc2ccc3nc(C(=O)N(CC(=O)O)Cc4cccc(C(=O)O)c4)ccc3c2)cc1 [Example 59]		217	0.31	0.27
CN(C(=O)N(CC(=O)O)Cc1cccc(C(=O)O)c1)c1ccc(OC(=O)c2ccc(NC(=N)N)cc2)cc1Cl [Example 61]		167	0.14	0.23
N=C(N)Nc1ccc(C(=O)Oc2ccc(CCC(=O)N(CC(=O)O)Cc3cc(C(=O)O)cc(C(=O)O)c3)c(Cl)c2)cc1 [Example 64]		198	0.7	0.37
N=C(N)Nc1ccc(C(=O)Oc2ccc(CCC(=O)N(CC(=O)O)Cc3cccc(CC(=O)O)c3)c(Cl)c2)cc1 [Example 78]		167	0.39	0.49
N=C(N)Nc1ccc(C(=O)Oc2ccc3nc(C(=O)N(CC(=O)O)Cc4csc(C(=O)O)c4)ccc3c2)cc1 [Example 80]		189	0.3	0.21
CC(C)(Oc1ccc(C[C@H](NC(=O)Cc2ccc(OC(=O)c3ccc(NC(=N)N)cc3)cc2Cl)C(=O)O)cc1)C(=O)O [Example 95]		188	0.64	0.66
CC(C)(Oc1ccc(C[C@H](NC(=O)CCc2ccc(OC(=O)c3ccc(NC(=N)N)cc3)cc2Cl)C(=O)O)cc1)C(=O)O [Example 96]		202	0.46	0.22
C[C@H](C(=O)O)N(Cc1csc(C(=O)O)c1)C(=O)c1ccc2cc(OC(=O)c3ccc(NC(=N)N)cc3)ccc2n1 [Example 102]		231	0.3	0.29
CN(C(=O)N(CC(=O)O)Cc1csc(C(=O)O)c1)c1ccc(OC(=O)c2ccc(NC(=N)N)cc2)cc1Cl [Example 111]		201	0.44	0.54
